Experimental data from US6673786B1, “Tryptase inhibitors” (Altana Pharma AG, priority 1999, dated 2004).
Counter-ions that a name gives are not always drawn.

Biological target: human tryptase
Test: Inhibition of human tryptase (apparent dissociation constant, chromogenic substrate tos-Gly-Pro-arg-pNA)
Type: biochemical
Settings: apparent dissociation constant in presence of substrate; heparin 0.1-50 μg/ml; equilibrium conditions; read-out: Klapp
Description: The documented pathophysiological effects of mast cell tryptase are caused directly by the enzymatic activity of the protease. Accordingly, they are reduced or blocked by inhibitors which inhibit the enzymatic activity of the tryptase. A suitable measure for the affinity of a reversible inhibitor to the target protease is the equilibrium dissociation constant Ki of the enzyme-inhibitor complex. This Ki value can be determined via the effect of the inhibitor on the tryptase-induced cleavage of a chromogenic peptide-p-nitroanilide substrate or a fluorogenic peptide-aminomethylcoumarin substrate.
The dissociation constants for the tryptase-inhibitor complexes are determined under equilibrium conditions in accordance with the general proposals of Bieth (Bieth J G, Pathophysiological Interpretation of kinetic constants of protease inhibitors, Bull. Europ. Physiopath. Resp. 16:183-195, 1980) and the methods of Sommerhoff et al. (Sommerhoff C P et al., A Kazal-type inhibitor of human mast cell tryptase: Isolation from the medical leech Hirudo medicinalis, characterization, and sequence analysis, Biol. Chem. Hoppe-Seyler 375: 685-694, 1994).
Human tryptase is isolated from lung tissue or prepared recombinantly; the specific activity of the protease, determined by titration, is usually greater than 85% of the theoretical value. In the presence of heparin (0.1-50 μg/ml) for stabilizing the protease, constant amounts of the tryptase are incubated with increasing amounts of the inhibitors. After an equilibrium between the reaction partners has formed, the remaining enzyme activity after addition of the peptide-p-nitroanilide substrate tos-Gly-Pro-arg-pNA is determined and the cleavage of the latter is monitored at 405 nm for 3 min. Alternatively, the remaining enzymatic activity can also be determined using fluorogenic substrates. The apparent dissociation constants Kiapp (i.e. in the presence of substrate) are subsequently determined by adapting the enzyme rates to the general equation for reversible inhibitors (Morrison J F, Kinetics of the reversible inhibition of enzymecatalyzed reactions by tight-binding inhibitors, Biochim. Biophys. Acta 185, 269-286, 1969) using non-linear regression:
V1V0=1−{Et+It+Kiapp−[(Et+It+Kiapp)^2−4EtIt]^½}/2Et
V1 and V0 are the rates in the presence and absence, respectively, of the inhibitor, and Et and It are the tryptase and inhibitor concentrations, respectively.
The apparent dissociation constants determined for the compounds according to the invention are shown in Table A below, where the numbers of the compounds correspond to the numbers of the compounds in the examples.

Row | Ki [nM] | Structure (SMILES)
1 | 0.8 | NCc1ccc(OCC(=O)N2CCN(C(=O)CN3CCC(=O)N(CC(=O)N4CCN(C(=O)COc5ccc(CN)cc5)CC4)CCC3=O)CC2)cc1 [Compound 4, 1,5-bis-{2-[4-(2-(4-Aminomethylphenoxy)acetyl)perazin-1-yl]-2-oxoethyl}perhydro-1.5-diazocin-2,6-dione Dihydrochloride]
2 | 2.6 | NCc1ccc(CNC(=O)N2CCN(C(=O)CN3CCC(=O)N(CC(=O)N4CCN(C(=O)NCc5ccc(CN)cc5)CC4)CCC3=O)CC2)cc1 [Compound 1, 1,5-bis-{2-[4-(4-Aminomethylbenzylaminocarbonyl)piperazin-1-yl]-2-oxoethyl}perhydro-1,5-diazocin-2,6-dione Dihydrochloride]
3 | 1.2 | NCc1ccc(CCC(=O)N2CCN(C(=O)CN3CCC(=O)N(CC(=O)N4CCN(C(=O)CCc5ccc(CN)cc5)CC4)CCC3=O)CC2)cc1 [Compound 2, 1,5-bis-{2-[4-(3-(4-aminomethylphenyl)proplonyl)piperazin-1-yl]-2-oxoethyl}perhydro-1,5-diazocin-2,6-dione Dihydrochloride]
4 | 3.3 | NCc1cccc(CCC(=O)N2CCN(C(=O)CN3CCC(=O)N(CC(=O)N4CCN(C(=O)CCc5cccc(CN)c5)CC4)CCC3=O)CC2)c1 [Compound 3, 1,5-bis-{2-[4-(3-(3-aminomethylphenyl)proplonyl)piperazin-1-yl]-2-oxoethyl}perhydro-1,5-diazocin-2,6-dione Dihydrochloride]
